Data taken from patent US20140051601A1, “METABOLOMIC PROFILING OF CANCER” (METABOLAN INC., priority 2006, published 2014).

How the values were obtained:
[1] = molecular target: EGFR (Homo sapiens, UniProt P00533); test: Immunoblot analysis of EGFR phosphorylation and total EGFR; settings: for total EGFR levels: upon treatment, PrEC
[2] = test system: RWPE cells; test: Sarcosine-induced invasion after pre-treatment with EGFR inhibitor; assay type: cell-based; settings: pre-treatment of RWPE cells with 10 μM
From the text: (§1) To investigate the biological role of sarcosine elevation in prostate cancer, prostate cancer cell lines VCaP, DU145, 22RV1 and LNCaP and their benign epithelial counterparts, primary benign prostate epithelial cells PrEC and immortalized benign RWPE prostate cells were used.

[3] = test system: benign prostate epithelial cells; test: Modified Boyden chamber matrigel invasion assay, exogenous addition of amino acids; assay type: cell-based; settings: compared with sarcosine
Procedure: as §1
(§2) To determine if sarcosine plays a role in this process, it was added directly to non-invasive benign prostate epithelial cells. Alanine (an isomer of sarcosine) was used as a control for these experiments. […] The present invention is not limited to a particular mechanism. Indeed, an understanding of the mechanism is not necessary to practice the present invention.

[4] = test system: RWPE cells; test: Invasion upon exogenous sarcosine or glycine with siRNA knock-down of GNMT; assay type: cell-based
Procedure: as §2

[5] = test system: src; test: Immunoblot analysis of src phosphorylation; assay type: cell-based; settings: sarcosine-treated PrEC compared to alanine-treated controls
From the text: (§3) Also total EGFR levels were elevated upon treatment with alanine or sarcosine. […]. […] This observation was further strengthened using both antibody-mediated inhibition of EGFRactivity and siRNA-mediated knock-down of receptor levels.

[6] = test system: p38MAPK; test: Immunoblot analysis of p38MAPK phosphorylation; assay type: cell-based; settings: sarcosine-treated PrEC
From the text: as §3

[7] = control non-target siRNA-transfected cells

Sequence of EGFR (P00533 25-1210): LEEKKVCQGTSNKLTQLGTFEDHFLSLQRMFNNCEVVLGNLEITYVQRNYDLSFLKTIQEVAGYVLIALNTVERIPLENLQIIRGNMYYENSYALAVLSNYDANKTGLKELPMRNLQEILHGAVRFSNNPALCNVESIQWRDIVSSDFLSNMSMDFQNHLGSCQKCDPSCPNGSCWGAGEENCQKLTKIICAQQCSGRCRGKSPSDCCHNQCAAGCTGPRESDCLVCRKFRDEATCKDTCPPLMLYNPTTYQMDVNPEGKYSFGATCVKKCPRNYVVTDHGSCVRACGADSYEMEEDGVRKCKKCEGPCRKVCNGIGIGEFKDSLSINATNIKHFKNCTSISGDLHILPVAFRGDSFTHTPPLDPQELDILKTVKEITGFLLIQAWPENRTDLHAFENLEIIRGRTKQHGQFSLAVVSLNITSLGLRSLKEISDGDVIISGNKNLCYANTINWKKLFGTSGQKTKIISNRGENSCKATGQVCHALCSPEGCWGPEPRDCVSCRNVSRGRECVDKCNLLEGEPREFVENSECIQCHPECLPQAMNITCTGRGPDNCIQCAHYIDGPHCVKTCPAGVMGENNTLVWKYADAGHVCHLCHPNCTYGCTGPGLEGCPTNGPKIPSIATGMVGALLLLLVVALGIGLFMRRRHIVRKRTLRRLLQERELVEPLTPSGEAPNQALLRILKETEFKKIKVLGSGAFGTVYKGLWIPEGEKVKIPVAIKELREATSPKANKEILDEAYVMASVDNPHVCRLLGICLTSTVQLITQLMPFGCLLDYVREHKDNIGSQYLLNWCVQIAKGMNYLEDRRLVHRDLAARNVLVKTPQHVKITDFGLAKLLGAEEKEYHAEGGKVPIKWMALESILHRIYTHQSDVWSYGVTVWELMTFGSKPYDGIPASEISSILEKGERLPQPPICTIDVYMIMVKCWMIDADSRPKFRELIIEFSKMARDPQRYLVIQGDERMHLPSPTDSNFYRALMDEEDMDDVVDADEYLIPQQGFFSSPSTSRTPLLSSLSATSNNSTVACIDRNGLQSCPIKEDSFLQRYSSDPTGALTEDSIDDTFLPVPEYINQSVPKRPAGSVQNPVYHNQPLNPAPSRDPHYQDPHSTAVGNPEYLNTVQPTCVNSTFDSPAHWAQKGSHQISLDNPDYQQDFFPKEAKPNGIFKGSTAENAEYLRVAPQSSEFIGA

| SMILES | total EGFR levels [1] | invasion upon exogenous amino acid addition, mean±SEM ([4]; GNMT knockdown) | invasion upon exogenous amino acid addition, mean±SEM [4, 7] | also measured |
| --- | --- | --- | --- | --- |
| C[C@H](N)C(=O)O [alanine, reference compound] | elevated | – | – | – |
| C#Cc1cccc(Nc2ncnc3cc(OCCOC)c(OCCOC)cc23)c1 [erlotinib] | – | – | – | decrease in sarcosine-induced invasion [2]: 2 fold |
| NCC(=O)O [glycine] | – | 0.20±0.03 | 0.46±0.04 | induction of invasion [3]: also induced invasion in these cells, although to a lesser degree than sarcosine |
| CNCC(=O)O [sarcosine, N-methylglycine] | elevated | 0.64±0.07 | 0.65±0.05 | src phosphorylation [5]: time-dependent increase; p38MAPK phosphorylation [6]: phosphorylation of p38MAPK; EGFR phosphorylation ([1]; sarcosine-treated PrEC compared to alanine-treated controls): time-dependent increase |
